# Test results as given in patent US11304989B2, “Peptides for use in the treatment of viral infections” (priority 2017, dated 2022).
# Where “and” joins values, the source holds several entries; their conditions need not be identical. Identical values can stand only once. Like-named read-outs stand apart in the source and are kept apart here.
# Experiments:
# [1] = test system: inflammatory cytokines IL2, IFN-γ, TNF-α; settings: reference [9]; cited from earlier work
# [2] = test system: influenza A H5N1 Duck/MN/1525/81 virus; design: species or system BALB/c mice; settings: mouse, in vivo
# [3] = test system: H1N1/A/California/04/09 influenza virus; design: species or system BALB/c mice; settings: mouse, in vivo
# H5N1 influenza virus = test system: H5N1 influenza virus; design: species or system BALB/c mice; settings: mouse, in vivo
# [4] = test system: cytokine and chemokine levels in lungs of mice infected with H5N1 influenza virus; design: species or system BALB/c mice; settings: mouse, in vivo
# [5] = test system: H1N1/A/California/04/09 influenza virus; test: Body weight of mice in lethal H1N1 influenza infection; format: in vivo, BALB/c mice; settings: FIG. 3A, 3B
# [6] = test system: influenza A H5N1 Duck/MN/1525/81 virus; settings: mouse, in vivo; cited from earlier work
compound,measurement,setting,value
HKGLDSAV [p3TA],biological activity compared with p2TA,[1],biological activity similar to that of p2TA
(D-Ala)-SPMLVAYD-(D-Ala) (XSPMLVAYDX; D-Ala at both termini; (D-A)-p2TA-(D-A); (1)..(1) X equals to D-Ala; (10)..(10) X equals to D-Ala),prolongation of survival over untreated control,[2],"moderate, dose-dependent prolongation of survival"
same,protection,[2],no protection
same,effect on death,[2]; ip,delayed death
same,survival,[2]; ip,30%
same,protection,[3],did not prove protective
same,arterial oxygen saturation level,H5N1 influenza virus,significantly improved
same,oxygen saturation (lung function),H5N1 influenza virus,significant improvement in lung function
same,IFN-γ level in lungs,[4],significantly reduce
same,IL-1α level in lungs,[4],significantly reduce
same,IL-1β level in lungs,[4],significantly reduce
same,IL-6 level in lungs,[4],significantly reduce
same,IL-10 level in lungs,[4],did not significantly reduce
same,monocyte chemoattractant protein-1 (MCP-1) level in lungs,[4],significantly reduce
same,recovery from infection-induced weight loss,"[5]; dose-dependent, after day 8",partial recovery from infection-induced weight loss
same,weight gain by day 17,"[5]; p2TA 10 μg per mouse, Ribavirin 75 mg/kg i.p.",~20%
SNGTIIHVK [p5TA],biological activity compared with p2TA,[1],biological activity similar to that of p2TA
YVNQTDIY [p4TA],biological activity compared with p2TA,[1],biological activity similar to that of p2TA
"CCOC(=O)C1=C[C@@H](OC(CC)CC)[C@H](NC(C)=O)[C@@H](N)C1 [Oseltamivir, reference compound]",survival,[2],70% and 50%
same,survival,[3],30%
same,survival routinely yielded by this Oseltamivir dose,[6],10-30%
